# Results published in patent publication US20100035311A1, “METHOD AND COMPOSITION FOR ENZYME STORAGE” (priority 2006, published 2010).
# Values joined by “and” are separate entries in the source; they are usually repeats but may differ in a detail not shown here. Equal entries are not always repeated. Where two headings read alike, the source gives them in different places.
# T1: CYP74A1 (Arabidopsis thaliana, UniProt Q96242)
# T1 sequence (Q96242 with tags, fused parts or gaps): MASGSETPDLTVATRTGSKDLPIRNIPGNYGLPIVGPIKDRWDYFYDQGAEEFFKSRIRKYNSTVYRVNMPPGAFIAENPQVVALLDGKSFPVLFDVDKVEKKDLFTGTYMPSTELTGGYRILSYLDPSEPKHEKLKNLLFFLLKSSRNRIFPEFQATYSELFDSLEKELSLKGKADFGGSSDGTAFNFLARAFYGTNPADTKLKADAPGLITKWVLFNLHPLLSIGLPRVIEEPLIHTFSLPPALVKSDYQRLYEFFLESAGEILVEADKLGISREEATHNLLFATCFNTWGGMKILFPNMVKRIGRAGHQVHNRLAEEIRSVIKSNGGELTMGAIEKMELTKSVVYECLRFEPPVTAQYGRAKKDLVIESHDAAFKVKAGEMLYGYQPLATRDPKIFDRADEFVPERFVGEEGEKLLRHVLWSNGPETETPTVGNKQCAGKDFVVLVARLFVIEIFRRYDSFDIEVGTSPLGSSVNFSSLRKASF
# Legend:
# [1] = system: Medicago truncatula hydroperoxide lyase CYP74C3 (HPLF), recombinant, wild type, N-terminal histidine-tagged; details: for Km / kcat: pH 6.5, 25° C.; for Km / affinity, fold change on detergent removal (Km higher) / kcat, fold difference (detergent-buffer higher than detergent-free): detergent-buffer vs detergent-free; for catalytic efficiency (kcat/Km) of detergent-free enzyme as % of enzyme purified without detergent removal: detergent-free vs detergent-buffer; for kcat as % of kcat with 13α-HPOT: purified in detergent-buffer
# [2] = target: T1, CYP74A1
# [3] = system: CYP74C3; details: cited from earlier work
# [4] = system: CYP74C3
# Procedure: (a) UV/Visible spectra of ligand-bound forms of oxidised native CYP74C3 (2 μM, ? ); KCN (100 mM, ——); imidazole (50 mM, ---------); DMPhP (250 mM, —[…] […]—). The spectrum of dithionite (50 mM) reduced CYP74C3 (2 μM) before ([…]) and after (—[…]—) reaction with CO (˜1 mM) are also shown. […] (c) Stopped-flow diode array spectral changes over a period of 200 s for cyanide (100 mM) binding to native oxidised CYP74C3 (2 μM).
# Spectra and steady-state kinetic analyses were performed using a dual beam scanning Shimadzu UV/Visible spectrophotometer (Model UV-1601, Shimadzu, Milton Keynes, U.K.). […] Stopped flow-UV/Visible data were analysed with the KineticAsyst 3.0 software package (Hi-Tech Scientific). Ligand-binding studies were carried out with both the native oxidised and the dithionite ion reduced forms of CYP74C3.
# [5] = system: CYP74C3; assay type: biochemical, Medicago truncatula
# Procedure: Protein content was estimated using the Bradford or bicinchoninic acid (BCA) assay (Pierce, Perbio Science, Cramlington, Northumberland, U.K.) according to the manufacturer's instructions. Bovine serum albumin was used as a standard. […] Substrate specificity was determined by comparing kcat/Km.
# [6] = system: AOS; details: ref [23′]; cited from earlier work
# [7] = system: CYP74C3; remark: listed apart in the source
# Procedure: (a) Dose response curve for reactivation of detergent-free CYP74C3 with the detergent Emulphogene. Detergent-free CYP74C3 was incubated with an equal volume of 100 mM sodium phosphate buffer, pH 6.5 or containing detergent (0.01-10.24 mM Emulphogene) for 15 min on ice. Samples (1.2 pmol) were then assayed for HPL activity in the standard assay with 20 μM 13α-HPOT; (b) Plot of predicted micelle concentration versus activity for calculation of Kd for Emulphogene binding and (c) Fit of velocity-substrate curves to one-site saturation model in SigmaPlot for detergent-free CYP74C3 (1.0 pmol, ∘---∘), CYP74C3 purified in detergent-buffer (0.5 pmol, ∘—∘) and detergent-free CYP74C3 after reactivation with 5 mM Emulphogene (0.5 pmol, ▾—▾). […] Error bars are the means±standard errors of at least six determinations on two different enzyme preparations.
# Substrate specificity was determined by comparing kcat/Km.
# [8] = target: T1, CYP74A1; details: pH 6.5
# [9] = assay type: physicochemical
# Source text: The following table provides a summary enzyme stability studies conducted on HPL and AOS enzymes, subjected to either freeze drying or speedvac drying, in the presence or absence of detergent. What is reported here is the degree to which enzyme activity is lost based on the storage condition. […] Subsequent re-hydration of each dried enzyme and spectroscopic analysis was used to determine the stability of the thus-treated enzymes. FIG. 11 provides stability over time information for the thus stored enzymes showing stability for at least ten weeks. UV/Vis spectra of detergent-free preparations of CYP74C3 (HPLF), CYP74A1 (AOS) and Pepper HPL were determined before and after freeze drying, as well as before and after drying in a speedvac. […] The UV/Vis spectra of preparations of CYP74C3 (HPLF), CYP74A1 (AOS) and Pepper HPL in the detergent triton before and after freeze drying were further determined. The UV/Vis spectra of these preparations were used to determine the percentage loss of protein resulting from freeze drying, or drying in a speedvac and the results are summarised in the following table.
# [10] = +Detergent (purified in detergent-buffer)
# [11] = Reactivated with 5 mM Emulphogene
# [12] = monomer-micelle complex vs detergent-free monomer
molecule,measurement,setting,value
CCCCC/C=C\C=C\[C@H](CCCCCCCC(=O)O)OO [9α-HPOD],"Substrate specificity (% 13α-HPOT), from kcat/Km",[1]; [10],8%
same,kcat/Km,[1]; [10],1.29e+07 M⁻¹ s⁻¹
same,Km,[1]; [10],15.3 ± 1.4 µM
same,kcat,[1]; [10],197 ± 6 s⁻¹
same,"Substrate specificity (% 13α-HPOT), from kcat/Km",[1]; Detergent-free,16%
same,kcat/Km,[1]; Detergent-free,500000 M⁻¹ s⁻¹
same,Km,[1]; Detergent-free,84.5 ± 10.1 µM
same,kcat,[1]; Detergent-free,44 ± 2 s⁻¹
same,"Substrate specificity (% 13α-HPOT), from kcat/Km",[1]; [11],5%
same,kcat/Km,[1]; [11],7.2e+06 M⁻¹ s⁻¹
same,Km,[1]; [11],25.8 ± 2.2 µM
same,kcat,[1]; [11],185 ± 7 s⁻¹
same,"Km / affinity, fold change on detergent removal (Km higher)",[1],6 fold
same,"kcat, fold difference (detergent-buffer higher than detergent-free)",[1],5 fold
same,catalytic efficiency (kcat/Km) of detergent-free enzyme as % of enzyme purified without detergent removal,[1],4%
same,kcat as % of kcat with 13α-HPOT,[1],38%
"CC/C=C\C/C=C\C=C\[C@H](CCCCCCCC(=O)O)OO [9α-HPOT, 9-S-hydroperoxy-10E,12Z,15Z-octadecatrienoic acid]","Substrate specificity (% 13α-HPOT), from kcat/Km",[1]; [10],0.4%
same,kcat/Km,[1]; [10],600000 M⁻¹ s⁻¹
same,Km,[1]; [10],39.1 ± 7.2 µM
same,kcat,[1]; [10],24 ± 2 s⁻¹
same,"Substrate specificity (% 13α-HPOT), from kcat/Km",[1]; Detergent-free,3%
same,kcat/Km,[1]; Detergent-free,100000 M⁻¹ s⁻¹
same,Km,[1]; Detergent-free,81.6 ± 9.7 µM
same,kcat,[1]; Detergent-free,8 ± 0 s⁻¹
same,"Substrate specificity (% 13α-HPOT), from kcat/Km",[1]; [11],0.4%
same,kcat/Km,[1]; [11],600000 M⁻¹ s⁻¹
same,Km,[1]; [11],51.7 ± 4.4 µM
same,kcat,[1]; [11],30 ± 1 s⁻¹
same,"Km / affinity, fold change on detergent removal (Km higher)",[1],2 fold
same,"kcat, fold difference (detergent-buffer higher than detergent-free)",[1],3 fold
same,catalytic efficiency (kcat/Km) of detergent-free enzyme as % of enzyme purified without detergent removal,[1],17%
same,kcat as % of kcat with 13α-HPOT,[1],5%
"CCCCC[C@@H](/C=C/C=C\CCCCCCCC(=O)O)OO [13α-HPOD, 13-S-hydroperoxyoctadeca-9Z, 11 E-dienoic acid]","Substrate specificity (% 13α-HPOT), from kcat/Km",[1]; [10],23% and 19%
same,kcat/Km,[1]; [10],3.5e+07 M⁻¹ s⁻¹
same,Km,[1]; [10],10.3 ± 2.1 µM
same,kcat,[1]; [10],361 ± 19 s⁻¹
same,"Substrate specificity (% 13α-HPOT), from kcat/Km",[1]; Detergent-free,19%
same,kcat/Km,[1]; Detergent-free,600000 M⁻¹ s⁻¹
same,Km,[1]; Detergent-free,102 ± 11.8 µM
same,kcat,[1]; Detergent-free,59 ± 3 s⁻¹
same,"Substrate specificity (% 13α-HPOT), from kcat/Km",[1]; [11],22%
same,kcat/Km,[1]; [11],3.35e+07 M⁻¹ s⁻¹
same,Km,[1]; [11],14.7 ± 1.9 µM
same,kcat,[1]; [11],493 ± 17 s⁻¹
same,"Km / affinity, fold change on detergent removal (Km higher)",[1],10 fold
same,"kcat, fold difference (detergent-buffer higher than detergent-free)",[1],6 fold
same,catalytic efficiency (kcat/Km) of detergent-free enzyme as % of enzyme purified without detergent removal,[1],2%
same,kcat as % of kcat with 13α-HPOT,[1],70%
"CC/C=C\C[C@@H](/C=C/C=C\CCCCCCCC(=O)O)OO [13α-HPOT, 13-S-hydroperoxy-9Z,11E,15Z-octadecatrienoic acid]",fold increase in kcat/Km after reactivation with detergent micelles,[2],~50 fold
same,"Substrate specificity (% 13α-HPOT), from kcat/Km",[1]; [10],100%
same,kcat/Km,[1]; [10],1.558e+08 M⁻¹ s⁻¹
same,Km,[1]; [10],3.3 µM
same,kcat,[1]; [10],514 ± 11 s⁻¹
same,"Substrate specificity (% 13α-HPOT), from kcat/Km",[1]; Detergent-free,100%
same,kcat/Km,[1]; Detergent-free,3.2e+06 M⁻¹ s⁻¹
same,Km,[1]; Detergent-free,20.9 ± 1.7 µM
same,kcat,[1]; Detergent-free,68 ± 5 s⁻¹
same,"Substrate specificity (% 13α-HPOT), from kcat/Km",[1]; [11],100%
same,kcat/Km,[1]; [11],1.493e+08 M⁻¹ s⁻¹
same,Km,[1]; [11],4.4 ± 0.6 µM
same,"Km / affinity, fold change on detergent removal (Km higher)",[1],6 fold
same,"kcat, fold difference (detergent-buffer higher than detergent-free)",[1],approximately 8 fold
same,catalytic efficiency (kcat/Km) of detergent-free enzyme as % of enzyme purified without detergent removal,[1],2%
same,"CYP74C3, fold faster than CYP74A1 (kcat/Km)","[1]; in detergent micelles, CYP74C3 vs CYP74A1",2.6 fold
same,fold increase in kcat/Km upon micelle binding,[1]; micelle-bound vs detergent-free,~50 fold
same,"Km of monomer-micelle complex, fold lower than detergent-free monomer",[1]; [12],5-6 fold
same,"kcat of monomer-micelle complex, fold higher than detergent-free monomer",[1]; [12],8-10 fold
same,kcat/Km,[1]; with detergent,up to 1.6×10^8 M^−1. s^−1
same,fold increase in kcat/Km upon micelle binding,[3],~50 fold
"[N-]=[N+]=[N-] [Azide, azide]",binding of ligand to CYP74C3,[4],shown to bind
same,Spin state of the haem iron after ligand or detergent binding,[4]; pH 6.5,Mixture
"c1ccc2[nH]cnc2c1 [BI, benzimidazole]",binding of ligand to CYP74C3,[4],shown to bind
"[C-]#[O+] [CO, Carbon monoxide]",Spin state of the haem iron after ligand or detergent binding,[4]; pH 6.5,Low
"c1c[nH]cn1 [Imidazole, imidazole]",activity of CYP74C3 after elution from IMAC with the ligand,[5],virtually inactive enzyme
same,binding of ligand to CYP74C3,[4],shown to bind
same,k1 of biphasic ligand binding,[4]; pH 6.5,2.5±0.1×10^−2 s^−1
same,k2 of biphasic ligand binding,[4]; pH 6.5,0.33±0.03×10^−2 s^−1
same,inhibition of AOS,[6],potent inhibitor
"N#C[S-].[K+] [KCNS, potassium thiocyanate]",binding of ligand to CYP74C3,[4],shown to bind
same,Spin state of the haem iron after ligand or detergent binding,[4]; pH 6.5,Mixture
"O=O [O2, dioxygen]",binding of ligand to CYP74C3,[4],shown to bind
"c1ccncc1 [Pyridine, pyridine]",binding of ligand to CYP74C3,[4],shown to bind
same,Spin state of the haem iron after ligand or detergent binding,[4]; pH 6.5,Low
"c1cscn1 [Thiazole, thiazole]",binding of ligand to CYP74C3,[4],shown to bind
polyoxyethylene 10 tridecyl ether [Emulphogene],Emulphogene concentration at which detergent-free CYP74C3 could be reactivated,[7],exceeding 2.6 mM
same,Kd,[7],6.9 µM
same,reactivation of detergent-free CYP74C3,[7],No reactivation
same,Spin state of the haem iron after ligand or detergent binding,[4]; pH 6.5,Low
same,Kd,[8],10.7 ± 1.7 µM
"CYP74A1: recombinant allene oxide synthase (AOS) from Arabidopsis thaliana (protein, UniProt Q96242 34-518, looked up) Allene oxide synthase, …: SGSETPDLTVATRTGSKDLPIRNIPGNYGLPIVGPIKDRWDYFYDQGAEEFFKSRIRKYNSTVYRVNMPPGAFIAENPQVVALLDGKSFPVLFDVDKVEKKDLFTGTYMPSTELTGGYRILSYLDPSEPKHEKLKNLLFFLLKSSRNRIFPEFQATYSELFDSLEKELSLKGKADFGGSSDGTAFNFLARAFYGTNPADTKLKADAPGLITKWVLFNLHPLLSIGLPRVIEEPLIHTFSLPPALVKSDYQRLYEFFLESAGEILVEADKLGISREEATHNLLFATCFNTWGGMKILFPNMVKRIGRAGHQVHNRLAEEIRSVIKSNGGELTMGAIEKMELTKSVVYECLRFEPPVTAQYGRAKKDLVIESHDAAFKVKAGEMLYGYQPLATRDPKIFDRADEFVPERFVGEEGEKLLRHVLWSNGPETETPTVGNKQCAGKDFVVLVARLFVIEIFRRYDSFDIEVGTSPLGSSVNFSSLRKASF",Loss of active protein (%),"[9]; Freeze Drying, +Emulphogene (0.3% w/v)",58.1%
same,Loss of active protein (%),"[9]; Freeze Drying, +Triton X-100 (0.2% w/v)",41.3%
same,Loss of active protein (%),"[9]; Freeze Drying, Detergent-free",2.3%
same,Loss of active protein (%),"[9]; Speedvac Drying, +Emulphogene (0.3% w/v)",83.1%
same,Loss of active protein (%),"[9]; Speedvac Drying, Detergent-free",17.6%
same,fold increase in kcat/Km after reactivation with detergent micelles,[2],48 fold
